Reference: patent US11944622B2 (Annapurna Bio, Inc., priority 2018, dated 2024)

These compounds were tested against T1, APJ Receptor (Homo sapiens, UniProt P35414) (assay: APJ cAMP assay (DiscoverX enzyme fragment complementation; inhibition of forskolin-stimulated cAMP)). Settings: CHO-K1 cell line stably expressing the APJ Receptor; EC80 forskolin; 30 minutes at 37° C.; read-out: Potency Range (APJ cAMP EC50).
T1 sequence (P35414 1-380): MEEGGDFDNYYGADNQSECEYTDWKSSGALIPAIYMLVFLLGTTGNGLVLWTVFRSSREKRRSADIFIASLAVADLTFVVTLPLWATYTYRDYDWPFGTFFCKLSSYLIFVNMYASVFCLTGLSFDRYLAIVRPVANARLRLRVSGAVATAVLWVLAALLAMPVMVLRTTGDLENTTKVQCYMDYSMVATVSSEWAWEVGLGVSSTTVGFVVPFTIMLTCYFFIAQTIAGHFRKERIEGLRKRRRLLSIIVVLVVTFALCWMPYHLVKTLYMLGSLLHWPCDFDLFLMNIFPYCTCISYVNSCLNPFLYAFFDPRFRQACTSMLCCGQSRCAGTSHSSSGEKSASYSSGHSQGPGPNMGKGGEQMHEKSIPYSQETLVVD
Format: cell-based
Excerpt: Activation of APJ receptor is known to inhibit forskolin-stimulated cyclic AMP (cAMP) production in cells in a pertussis toxin-sensitive manner which indicates primary coupling to the GαI subunit of the G protein heterotrimeric complex. In addition to signaling through G protein and inhibition of cAMP, APJ receptor activation also results in β-arrestin recruitment, receptor internalization and activation of extracellular-regulated kinases (ERKs).
In order to optimize functional activity directed toward Gi coupling we utilized a CHO-K 1 cell line developed by DiscoverX stably expressing the APJ Receptor. Cells expressing APJR receptor were plated in a 384-well microtiter plates and incubated overnight at 37° C. with 5% CO2 to allow the cells to attach and grow. Media was then aspirated from the cells and replaced with 15 uL 2:1 Hanks Balanced Salt Solution (HBSS)/10 mM Hepes:cAMP XS+Ab reagent. Five microliters (5 uL) of previously generated compound sample stocks at 4× final concentration in assay buffer containing 4× EC80 forskolin were then added to the cells and allowed to incubate at 37° C. for 30 minutes.
After incubation the assay signal was generated using a technology termed enzyme fragment complementation (EFC). In EFC the enzyme B-galactosidase is split into two complementary portions (EA and ED). The fragment ED is fused to cAMP and in the assay format competes with endogenous cAMP for binding to a cAMP specific antibody. Activated B-Gal is formed when exogenous EA fragment binds to free ED-cAMP (not bound to cAMP specific antibody). Activated enzyme levels are detected through conversion of B-gal chemiluminescent substrate which generates a detectable luminescence signal and read on standard microtiter plate.
The methodology for detection of cAMP using EFC requires incubation with 20 uL of cAMP XS+ED/CL lysis cocktail for one hour followed by incubation with 20 uL cAMP XS+EA reagent for three hours at room temperature. Microplates were read following signal generation with a PerkinElmer Envision instrument utilizing chemiluminescent signal detection.
Compound activity was analyzed using CBIS data analysis suite (ChemInnovation, CA). Percentage activity was calculated using the following formula: % Activity=100%×(1−(mean RLU of test sample−mean RLU of Max control)/(mean RLU of vehicle control−mean RLU of Max control))

Row | SMILES | EC50
1 | CCOc1cccc(-c2nc3ncc(Br)nc3n2-c2c(OC)cccc2OC)n1 [Example 1, 6-bromo-1-(2,6-dimethoxyphenyl)-2-(6-ethoxypyridin-2-yl)-1H-imidazo[4,5-b]pyrazine] | 0.1 to 10 µM
2 | CCOc1cccc(-c2nc3ncc(NS(=O)(=O)N(C)C4CC4)nc3n2-c2c(OC)cccc2OC)n1 [Example 77, N-(1-(2,6-dimethoxyphenyl)-2-(6-ethoxypyridin-2-yl)-1H-imidazo[4,5-b]pyrazin-6-yl)-N′-methyl-N′-cyclopropylsulfamide] | < 0.001 µM
3 | CCOc1cccc(-c2nc3nc(NS(=O)(=O)N4CCOCC4)cnc3n2-c2c(OC)cccc2OC)n1 [Example 90, N-(1-(2,6-Dimethoxyphenyl)-2-(6-ethoxypyridin-2-yl)-1H-imidazo[4,5-b]pyrazin-5-yl)morpholine-4-sulfonamide] | < 0.001 µM
4 | CCOc1cccc(-c2nc3ncc(NS(=O)(=O)Cc4ccc(C)cn4)nc3n2-c2c(OC)cccc2OC)n1 [Example 83, N-(1-(2,6-Dimethoxyphenyl)-2-(6-ethoxypyridin-2-yl)-1H-imidazo[4,5-b]pyrazin-6-yl)-1-(5-methylpyridin-2-yl)methanesulfonamide] | < 0.001 µM
5 | CCOc1cccc(-c2nc3nc(NS(=O)(=O)C4CC4)cnc3n2-c2c(OC)cccc2OC)n1 [Example 92, N-(1-(2,6-Dimethoxyphenyl)-2-(6-ethoxypyridin-2-yl)-1H-imidazo[4,5-b]pyrazin-5-yl)cyclopropanesulfonamide] | 0.001 to 0.1 µM
6 | CC#CCS(=O)(=O)Nc1cnc2nc(-c3cccc(OCC)n3)n(-c3c(OC)cccc3OC)c2n1 [Example 82, N-(1-(2,6-Dimethoxyphenyl)-2-(6-ethoxypyridin-2-yl)-1H-imidazo[4,5-b]pyrazin-6-yl)but-2-yne-1-sulfonamide] | 0.001 to 0.1 µM
7 | CCOc1cccc(-c2nc3nc(NCc4ccc(OC)cc4)cnc3n2-c2c(OC)cccc2OC)n1 [Example 46, 1-(2,6-dimethoxyphenyl)-2-(6-ethoxypyridin-2-yl)-N-(4-methoxybenzyl)-1H-imidazo[4,5-b]pyrazin-5-amine] | < 0.001 µM
8 | CCOc1cccc(-c2nc3ncc(NS(C)(=O)=O)nc3n2-c2c(OC)ccnc2OC)n1 (atropisomer, axis not shown) [Example 84, N-(1-(2,4-Dimethoxypyridin-3-yl)-2-(6-ethoxypyridin-2-yl)-1H-imidazo[4,5-b]pyrazin-6-yl)methanesulfonamide] | 0.001 to 0.1 µM
9 | CCOc1cccc(-c2nc3ncc(NS(C)(=O)=O)nc3n2-c2c(F)cccc2OC)n1 [Example 50] | 0.001 to 0.1 µM
10 | CCOc1cccc(-c2nc3ncc(NS(=O)(=O)Cc4cncnc4)nc3n2-c2c(OC)cccc2OC)n1 [Example 35, N-(1-(2,6-dimethoxyphenyl)-2-(6-ethoxypyridin-2-yl)-1H-imidazo[4,5-b]pyrazin-6-yl)-1-(pyrimidin-5-yl)methanesulfonamide] | 0.001 to 0.1 µM
11 | CCOc1cccc(-c2nc3nnc(NS(=O)(=O)Cc4ncc(Cl)cn4)cc3n2-c2c(OC)cccc2OC)n1 [Example 144, 1-(5-Chloropyrimidin-2-yl)-N-(7-(2,6-dimethoxyphenyl)-8-(6-ethoxypyridin-2-yl)-7H-imidazo[4,5-c]pyridazinyl)methanesulfonamide] | < 0.001 µM
12 | COc1cccc(-c2nc3ncc(NS(=O)(=O)c4ncccn4)nc3n2-c2c(OC)cccc2OC)n1 [Example 53, N-(1-(2,6-dimethoxyphenyl)-2-(6-methoxypyridin-2-yl)-1H-imidazo[4,5-b]pyrazin-6-yl)pyrimidine-2-sulfonamide] | 0.001 to 0.1 µM
13 | CCOc1cccc(-c2nc3ncc(NS(=O)(=O)N4CCNCC4)nc3n2-c2c(OC)cccc2OC)n1 [Example 74, N-(1-(2,6-Dimethoxyphenyl)-2-(6-ethoxypyridin-2-yl)-1H-imidazo[4,5-b]pyrazin-6-yl)piperazine-1-sulfonamide] | 0.001 to 0.1 µM
14 | CCOc1cccc(-c2nc3nc(Cl)c(NS(=O)(=O)c4ccc(F)cn4)nc3n2-c2c(OC)cccc2OC)n1 [Example 99, N-(5-Chloro-1-(2,6-dimethoxyphenyl)-2-(6-ethoxypyridin-2-yl)-1H-imidazo[4,5-b]pyrazin-6-yl)-5-fluoropyridine-2-sulfonamide] | 0.001 to 0.1 µM
15 | CCOc1cccc(-c2nc3ncc(N(C)S(C)(=O)=O)nc3n2-c2c(OC)cccc2OC)n1 [Example 32, N-(1-(2,6-dimethoxyphenyl)-2-(6-ethoxypyridin-2-yl)-1H-imidazo[4,5-b]pyrazin-6-yl)-N-methylmethanesulfonamide] | 0.1 to 10 µM
16 | CCOc1cccc(-c2nc3nc(Cl)c(NS(=O)(=O)N4CCC(O)CC4)nc3n2-c2c(OC)cccc2OC)n1 [Example 116, N-(5-Chloro-1-(2,6-dimethoxyphenyl)-2-(6-ethoxypyridin-2-yl)-1H-imidazo[4,5-b]pyrazin-6-yl)-4-hydroxypiperidine-1-sulfonamide] | 0.001 to 0.1 µM
17 | CCOc1cccc(-c2nc3ncc(NS(C)(=O)=O)nc3n2-c2c(OC)cccc2C(F)(F)F)n1 [Example 48, N-(2-(6-ethoxypyridin-2-yl)-1-(2-methoxy-6-(trifluoromethyl)phenyl)-1H-imidazo[4,5-b]pyrazin-6-yl)methanesulfonamide] | 0.001 to 0.1 µM
18 | CCOc1cccc(-c2cc3ncc(NS(C)(=O)=O)nc3n2-c2c(OC)cccc2OC)n1 [Example 19, N-(5-(2,6-dimethoxyphenyl)-6-(6-ethoxypyridin-2-yl)-5H-pyrrolo[2,3-b]pyrazin-3-yl)methanesulfonamide] | 0.1 to 10 µM
19 | CCOc1cccc(-c2nc3ncc(C(=O)NCc4ccccc4)nc3n2-c2c(OC)cccc2OC)n1 [Example 8, N-Benzyl-1-(2,6-dimethoxyphenyl)-2-(6-ethoxypyridin-2-yl)-1H-imidazo[4,5-b]pyrazine-6-carboxamide] | 0.1 to 10 µM
20 | CCOc1cccc(-c2nc3nc(Cl)c(NS(=O)(=O)Cc4ncc(C)cn4)nc3n2-c2c(OC)cccc2OC)n1 [Example 142, N-(5-Chloro-1-(2,6-dimethoxyphenyl)-2-(6-ethoxypyridin-2-yl)-1H-imidazo[4,5-b]pyrazin-6-yl)-1-(5-methylpyrimidin-2-yl)methanesulfonamide] | < 0.001 µM
21 | CCOc1cccc(-c2nc3nc(Cl)c(NS(C)(=O)=O)nc3n2-c2c(OC)cccc2OC)n1 [Example 64, N-(5-chloro-1-(2,6-dimethoxyphenyl)-2-(6-ethoxypyridin-2-yl)-1H-imidazo[4,5-b]pyrazin-6-yl)methanesulfonamide] | 0.001 to 0.1 µM
22 | CCOc1cccc(-c2nc3ncc(NS(=O)(=O)Cc4ccccn4)nc3n2-c2c(OC)cccc2OC)n1 [Example 27, N-(1-(2,6-dimethoxyphenyl)-2-(6-ethoxypyridin-2-yl)-1H-imidazo[4,5-b]pyrazin-6-yl)-1-(pyridin-2-yl)methanesulfonamide] | 0.001 to 0.1 µM
23 | COc1cccc(OC)c1-n1c(-c2cccc(OC3CC3)n2)nc2ncc(NS(C)(=O)=O)nc21 [Example 54, N-(2-(6-cyclopropoxypyridin-2-yl)-1-(2,6-dimethoxyphenyl)-1H-imidazo[4,5-b]pyrazin-6-yl)methanesulfonamide] | 0.001 to 0.1 µM
24 | CCOc1cccc(-c2nc3ncc(NS(=O)(=O)C[C@H]4CCN(C)C(=O)C4)nc3n2-c2c(OC)cccc2OC)n1 [Example 71, (S)—N-(1-(2,6-Dimethoxyphenyl)-2-(6-ethoxypyridin-2-yl)-1H-imidazo[4,5-b]pyrazin-6-yl)-1-(1-methyl-2-oxopiperidin-4-yl)methanesulfonamide] | < 0.001 µM
